Measured values reported in patent publication US20050271755A1, “Phytomedicinal compositions for the control of lipid accumulation and metabolism in mammals” (priority 2004, published 2005).

How the values were obtained:
[1] = cited from earlier work
Human pancreatic lipase = target: T1, Human pancreatic lipase (Homo sapiens, UniProt P16233); assay: Pancreatic Lipase (PL) inhibitory test (Lipase-PS kit); assay type: biochemical; settings: FIG. 3 / FIG. 14
T1 construct: purchased Sigma-Aldrich
T1 sequence (P16233 17-465): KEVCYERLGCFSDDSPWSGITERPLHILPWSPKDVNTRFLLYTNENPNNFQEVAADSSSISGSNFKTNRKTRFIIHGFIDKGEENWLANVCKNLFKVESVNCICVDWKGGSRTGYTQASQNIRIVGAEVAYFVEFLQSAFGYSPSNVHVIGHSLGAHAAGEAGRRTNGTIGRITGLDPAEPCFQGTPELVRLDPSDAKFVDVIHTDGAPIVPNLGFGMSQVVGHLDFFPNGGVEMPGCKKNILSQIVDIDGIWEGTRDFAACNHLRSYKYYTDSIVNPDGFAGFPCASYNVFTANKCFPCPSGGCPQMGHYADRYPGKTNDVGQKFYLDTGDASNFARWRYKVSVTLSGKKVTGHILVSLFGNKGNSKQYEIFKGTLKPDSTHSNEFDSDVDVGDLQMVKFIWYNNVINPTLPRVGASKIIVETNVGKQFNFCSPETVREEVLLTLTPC
T1 sequence (P04118 23-112 partner): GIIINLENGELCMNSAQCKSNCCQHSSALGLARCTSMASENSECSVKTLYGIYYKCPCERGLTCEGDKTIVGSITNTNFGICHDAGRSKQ
Method: A Pancreatic Lipase (PL) inhibitory test was performed with a commercial kit (Lipase-PSTM Trinity Biotech USA, Jamestown, N.Y.). Lipase-PSTM reagents were obtained from Trinity Biotech USA (Lipase-PSTM was manufactured by Sigma Diagnostics (Procedure No. 805, Sigma-Aldrich, St. Louis, Mo. until 2003)). […] Louis, Mo.). […] Activator reagent (300 μL) was added and mixed by gentle inversion and the samples were incubated again for 3 min. at 37° C. The recorded rate of increase in absorbance at 550 nm due to the formation of quinone diimine dye was used to determine the pancreatic lipase activity in the samples prepared, as detailed in the literature. Lott, J. A., et al., Lipase Isoforms and Amylase Isoenzymes: Assays and Application in the Diagnosis of Acute Pancreatitis, Clinical Chemistry, 37, 361 (1991); Moreno […]., Fried […]., 2003, Inhibitory effects of grape seed extract on lipases, Nutrition 19, 876-879 (hereinafter “Moreno et al. 2003”).

| SMILES | diarrhea (in words) ([1]; literature) | inhibition of dietary fat absorption ([1]; recommended therapeutic dose of 120 mg three times a day) | inhibitory effect on in vitro pancreatic lipase (in words) (Human pancreatic lipase) | inhibitory effect on in vitro pancreatic lipase (in words) (Human pancreatic lipase; listed as Esculetin) |
| --- | --- | --- | --- | --- |
| CCCCCCCCCCC[C@@H](C[C@@H]1OC(=O)[C@H]1CCCCCC)OC(=O)[C@H](CC(C)C)NC=O [Orlistat] | common side effect | about 30% |  |  |
| O=c1ccc2cc(O)c(O)cc2o1 [esculetin, 6,7-dihydroxycoumarin] |  |  | particularly strong inhibitory effect | strong inhibitory effect on PL in a dose dependent manner |
